Consider 2 molecules from patent US8927009B2 (AbbVie Inc., priority 2009, dated 2015).

A short description of series [1]: Drug solubility in ternary excipient systems. Type of series: physicochemical. On the set-up: key: ✓: vehicle miscible, or drug fully dissolved in vehicle; x: vehicle immiscible or miscible but turbid, or residual solids present (due to undissolved drug or precipitation). As to conditions: 10% salt, 20% free base, listed as free base. The source says:
Solvents evaluated included Labrafil M 1944 CS™, Imwitor 742™, oleic acid, Capmul PG-8™, Capmul PG-12™, Lauroglycol 90™ (propylene glycol monolaurate, available from Gattefossé) and Phosal 53 MCT™. Surfactants evaluated included Tween 80™, Cremophor RH40™, Gelucire 44/14™ (polyoxyethylene glyceryl laurate, available from Gattefossé) and Labrasol™.

Series [2] in a line: Solubility in lipid solvents and solvent mixtures in ambient conditions. The series is classed as physicochemical. As to conditions: listed as Parent (Form I). Here is the method:
Solubility of ABT-263 parent (free base, crystalline Form I) and ABT-263 bis-HCl salt was tested in a variety of lipid solvents and solvent mixtures in ambient conditions. Trademarked solvents in this study, unless identified hereinabove, are as follows (substantially equivalent products from other manufacturers can be substituted if available): • Miglyol 810™ of Sasol: caprylic/capric triglycerides; • Capmul MCM™ of Abitec: glyceryl caprylate/caprate; • Captex 300™ of Abitec: caprylic/capric triglycerides; • Labrafil M 2125 CS™ of Gattefossé: polyoxyethylene glyceryl linoleate; • Tween 20™ of Uniqema: polysorbate 20; • Labrasol™ of Gattefossé: polyoxyethylene glyceryl caprylate/caprate; • Cremophor RH40™: polyoxyethyene (40) hydrogenated castor oil. “PE-91” is Phosal 53 MCT™+ethanol, 9:1 by volume. “LOT-343” is Labrafil M 1944 CS™+oleic acid+Tween 80™, 30:40:30 by weight.
In some cases, indicated in Table 4 by an asterisk (*), solubility was initially high but precipitation occurred upon standing.

The target in the next series is Bcl-XL (Homo sapiens, UniProt Q07817). As to conditions: cited from earlier work.
Chain of Bcl-XL (Q07817 whole entry): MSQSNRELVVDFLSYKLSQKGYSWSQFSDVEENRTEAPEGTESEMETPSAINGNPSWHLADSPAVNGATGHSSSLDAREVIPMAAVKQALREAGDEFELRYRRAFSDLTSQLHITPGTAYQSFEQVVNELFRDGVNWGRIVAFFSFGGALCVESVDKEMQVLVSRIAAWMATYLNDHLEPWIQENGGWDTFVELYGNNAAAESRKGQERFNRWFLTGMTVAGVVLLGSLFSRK
The target in another series is T1, Bcl-w (Homo sapiens, UniProt Q92843).
T1 sequence (Q92843 1-193): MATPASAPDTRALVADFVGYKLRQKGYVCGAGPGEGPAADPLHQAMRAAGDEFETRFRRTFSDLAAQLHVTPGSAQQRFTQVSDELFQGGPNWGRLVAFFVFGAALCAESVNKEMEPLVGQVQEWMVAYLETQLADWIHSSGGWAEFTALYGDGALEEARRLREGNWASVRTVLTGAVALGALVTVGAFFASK
As to conditions: cited from earlier work.

The next series addresses Bcl-2 (Homo sapiens, UniProt P10415). As to conditions: cited from earlier work.

Bounds are passed on as bounds.

Chain of Bcl-2 (P10415 whole entry): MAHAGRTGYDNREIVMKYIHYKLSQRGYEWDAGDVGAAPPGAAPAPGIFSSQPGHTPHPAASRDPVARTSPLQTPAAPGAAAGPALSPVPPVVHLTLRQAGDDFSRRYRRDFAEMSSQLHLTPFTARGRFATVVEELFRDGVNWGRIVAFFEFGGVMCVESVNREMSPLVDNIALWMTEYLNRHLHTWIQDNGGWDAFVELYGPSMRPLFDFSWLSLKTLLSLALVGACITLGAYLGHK

Turning to `CC1(C)CCC(c2ccc(Cl)cc2)=C(CN2CCN(c3ccc(C(=O)NS(=O)(=O)c4ccc(N[C@H](CCN5CCOCC5)CSc5ccccc5)c(S(=O)(=O)C(F)(F)F)c4)cc3)CC2)C1` [ABT-263], the ABT-263 solubility entry in series [1] (Imwitor 742/Labrafil M 1944 CS/Cremophor RH40 (ILC) 40:40:20 % by weight), in series [1] (Imwitor 742/Labrafil M 1944 CS/Cremophor RH40 (ILC) 50:30:20 % by weight), in series [1] (Imwitor 742/Labrafil M 1944 CS/Cremophor RH40 (ILC) 50:40:10 % by weight), in series [1] (Imwitor 742/Labrafil M 1944 CS/Cremophor RH40 (ILC) 60:30:10 % by weight), in series [1] (Imwitor 742/Labrafil M 1944 CS/Labrasol (ILL) 40:40:20 % by weight) and in series [1] (Imwitor 742/Labrafil M 1944 CS/Labrasol (ILL) 50:30:20 % by weight) was “x” throughout. Moreover, the ABT-263 solubility result in series [1] (Imwitor 742/Labrafil M 1944 CS/Labrasol (ILL) 50:40:10 % by weight), in series [1] (Imwitor 742/Labrafil M 1944 CS/Labrasol (ILL) 60:30:10 % by weight), in series [1] (Labrafil M 1944 CS/Imwitor 742/Tween 80 (LIT) 30:40:30 % by weight), in series [1] (Labrafil M 1944 CS/Imwitor 742/Tween 80 (LIT) 30:45:25 % by weight), in series [1] (Labrafil M 1944 CS/Imwitor 742/Tween 80 (LIT) 40:30:30 % by weight) and in series [1] (Labrafil M 1944 CS/Imwitor 742/Tween 80 (LIT) 40:35:25 % by weight) was “x” throughout. The ABT-263 solubility result in series [1] (Lauroglycol 90/Labrafil M 1944 CS/Labrasol (LLL) 50:40:10 % by weight) and in series [1] (Lauroglycol 90/Labrafil M 1944 CS/Labrasol (LLL) 60:30:10 % by weight) was “x” throughout. Further, the Solubility in series [2] (in Labrafil M 2125 CS, ambient conditions) was greater than 290 mg/g; in series [2] (in PE-91 (Phosal 53 MCT + ethanol 9:1 by volume), ambient conditions), greater than 250 mg/g; in series [2] (in PEG-400, ambient conditions), greater than 200 mg/g; in series [2] (in corn oil, ambient conditions), less than 86 mg/g; in series [2] (in sesame oil, ambient conditions), less than 75 mg/g.
Consider `CN(C)CC[C@H](CSc1ccccc1)Nc1ccc(S(=O)(=O)NC(=O)c2ccc(N3CCN(Cc4ccccc4-c4ccc(Cl)cc4)CC3)cc2)cc1[N+](=O)[O-]` [ABT-737], for which the binding affinity on Bcl-XL, at Bcl-w and on Bcl-2 was less than 1 nM each time.
